Molecular target: Shaker K+ channel (Shaker B) (Drosophila melanogaster, UniProt P08510, DEL6-46/F425G/K253C/T449F)
Experiment: two-electrode voltage clamp in Xenopus oocytes
Assay type: cell-based

CC[N+](CC)(CC)CC [TEA]
Kd: 200 µM

From publication PMC2234460 (The Journal of General Physiology, 2002)
